Where “and” joins values, the source holds several entries; their conditions need not be identical. Equal values may be shown once.
Key:
Type in all cases: cell-based
[1] = tested on: PATU-8902 LACZ-FKBP12^F36V clone; experiment: Antiproliferation, PATU-8902 LACZ-FKBP12F36V clone, 3D-spheroid (CellTiter-Glo)
Method: (§1) Cell viability was assayed in 2D-adherent or ultra-low adherent 3D-spheroids using CellTiter-Glo (Promega)[6],[15]. Luminescence was measured on an Envision 2104 plate reader (PerkinElmer) and Fluostar Omega Reader (BMG Labtech) and data was analyzed using GraphPad PRISM v8. Synergy assessments were performed using CellTiter-Glo (Promega) with the following modifications to the protocol described in the ref. [34]. In brief, EWS502 cells were plated at 1000 cells per well in 50 µL of appropriate media in 384-well white culture plates (Corning) allowed to adhere overnight, and 100 nL of compounds were added using a Janus Workstation pin tool (PerkinElmer) for 72 h. Cell viability was measured by addition of 10 µL of CellTiter-glo (Promega), followed by incubation for 15 minutes at room temperature. Luminescence was measured on an Envision 2104 plate reader (PerkinElmer) and data was analyzed using GraphPad PRISM v8.

[2] = tested on: PATU-8902 FKBP12^F36V-KRAS^G12V; KRAS^-/- clone; experiment: Antiproliferation, PATU-8902 FKBP12F36V-KRASG12V; KRAS-/- clone, 2D-monolayer (CellTiter-Glo)
Method: as §1

[3] = molecular target: T1, FKBP12^WT-Nluc (Homo sapiens, UniProt P62942); experiment: FKBP12WT-Nluc dual luciferase assay (293FT); settings: 293FT FKBP12WT-Nluc, 24 h
T1 construct: expressed in transfected cells; host or cells: 293FT
T1 sequence (P62942 2-108 limits assumed): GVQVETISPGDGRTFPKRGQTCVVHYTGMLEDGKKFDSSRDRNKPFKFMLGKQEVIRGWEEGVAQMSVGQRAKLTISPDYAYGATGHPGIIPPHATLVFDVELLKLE
Method: (§2) Dual luciferase assays were performed using 293FT FKBP12^WT-Nluc and FKBP12^F36V-Nluc cells. In brief, cells were plated at 2000 cells per well in 20 µL of appropriate media in 384-well white culture plates (Corning), allowed to adhere overnight, and 100 nL of compounds were added using a Janus Workstation pin tool (PerkinElmer) for 24 h at 37 °C. To evaluate Fluc signal, plates were brought to room temperature, 20 µL of Dual-Glo Reagent (Promega) was added for 10 min and luminescence was measured on an Envision 2104 plate reader (PerkinElmer). Subsequently, 20 µL of Dual-Glo Stop & Glo Reagent (Promega) was added for 10 min and luminescence was again measured to capture Nluc signal. DMSO-normalized ratios of Nluc/Fluc signal was analyzed and plotted using GraphPad PRISM v8[6].

[4] = molecular target: T2, FKBP12^F36V-Nluc (Homo sapiens, UniProt P62942, F37V); experiment: FKBP12F36V-Nluc dual luciferase assay (293FT); settings: 293FT FKBP12F36V-Nluc, 24 h
T2 construct: expressed in transfected cells; host or cells: 293FT
T2 sequence (P62942 2-108 F37V limits assumed): as the sequence (P62942 2-108 limits assumed) above, with F36V counted along it
Method: as §2

[5] = tested on: PATU-8902 LACZ-FKBP12^F36V clone; experiment: Antiproliferation, PATU-8902 LACZ-FKBP12F36V clone, 2D-monolayer (CellTiter-Glo)
Method: as §1

[6] = tested on: PATU-8902 FKBP12^F36V-KRAS^G12V; KRAS^-/- clone; experiment: Antiproliferation, PATU-8902 FKBP12F36V-KRASG12V; KRAS-/- clone, 3D-spheroid (CellTiter-Glo); settings: FKBP12F36V-KRASG12V, KRAS-/-, 3D-spheroid, replicate values
Method: as §1

[7] = log10[compound] (M) -5.69897, replicate values
[8] = log10[compound] (M) -6.19897, replicate values
[9] = log10[compound] (M) -6.69897, replicate values
[10] = log10[compound] (M) -7.19897, replicate values
[11] = log10[compound] (M) -7.69897, replicate values
[12] = log10[compound] (M) -8.19897, replicate values
[13] = log10[compound] (M) -8.69897, replicate values
[14] = log10[compound] (M) -9.19897, replicate values
[15] = log10[compound] (M) -9.69897, replicate values
[16] = log10[compound] (M) -10.199, replicate values
[17] = log10[compound] (M) -5.30103, single replicates
[18] = log10[compound] (M) -5.80103, single replicates
[19] = log10[compound] (M) -6.30103, single replicates
[20] = log10[compound] (M) -6.80103, single replicates
[21] = log10[compound] (M) -7.30103, single replicates
[22] = log10[compound] (M) -7.80103, single replicates
[23] = log10[compound] (M) -8.30103, single replicates
[24] = log10[compound] (M) -8.80103, single replicates
[25] = log10[compound] (M) -9.30103, single replicates
[26] = log10[compound] (M) -9.80103, single replicates

CC[C@H](C(=O)N1CCCC[C@H]1C(=O)O[C@H](CCc1ccc(OC)c(OC)c1)c1ccccc1OCC(=O)NCCCCCCOc1cccc2c1C(=O)N(C1CCC(=O)N(C)C1=O)C2=O)c1cc(OC)c(OC)c(OC)c1 (stereo partly drawn) [dTAG-13-NEG]
DMSO-normalized antiproliferation [1, 7]: 78.2662 and 80.6112 and 107.636 and 101.511
DMSO-normalized antiproliferation [1, 8]: 115.881 and 119.912 and 109.909 and 110.138
DMSO-normalized antiproliferation [1, 9]: 134.032 and 111.738 and 124.289 and 133.898
DMSO-normalized antiproliferation [1, 10]: 111.46 and 97.6141 and 114.554 and 105.672
DMSO-normalized antiproliferation [1, 11]: 122.388 and 133.597 and 106.246 and 144.762
DMSO-normalized antiproliferation [1, 12]: 120.684 and 101.999 and 116.106 and 132.987
DMSO-normalized antiproliferation [1, 13]: 123.405 and 123.822 and 121.356 and 113.012
DMSO-normalized antiproliferation [1, 14]: 108.263 and 109.792 and 100.309 and 162.971
DMSO-normalized antiproliferation [1, 15]: 109.842 and 96.251 and 145.82 and 104.761
DMSO-normalized antiproliferation [1, 16]: 93.2647 and 77.5801 and 110.815 and 107.241
DMSO-normalized antiproliferation [2, 7]: 50.9912 and 75.2013 and 73.3197 and 81.1372
DMSO-normalized antiproliferation [2, 8]: 68.0095 and 98.7671 and 119.504 and 100.111
DMSO-normalized antiproliferation [2, 9]: 129.938 and 93.0967 and 131.778 and 96.6262
DMSO-normalized antiproliferation [2, 10]: 111.6 and 154.459 and 120.786 and 146.95
DMSO-normalized antiproliferation [2, 11]: 99.1211 and 134.569 and 105.935 and 133.398
DMSO-normalized antiproliferation [2, 12]: 121.063 and 109.153 and 96.3979 and 125.341
DMSO-normalized antiproliferation [2, 13]: 116.243 and 134.344 and 103.587 and 114.006
DMSO-normalized antiproliferation [2, 14]: 75.2314 and 130.564 and 98.3202 and 135.021
DMSO-normalized antiproliferation [2, 15]: 119.764 and 98.922 and 106.747 and 99.1636
DMSO-normalized antiproliferation [2, 16]: 97.9582 and 111.563 and 110.426 and 109.944
DMSO-normalized ratio of Nluc/Fluc signal [3, 17]: 67.0666 and 77.8998 and 91.6821 and 102.898
DMSO-normalized ratio of Nluc/Fluc signal [3, 18]: 78.9348 and 111.471 and 83.3725 and 82.7897
DMSO-normalized ratio of Nluc/Fluc signal [3, 19]: 92.3022 and 94.9354 and 69.2394 and 97.8278
DMSO-normalized ratio of Nluc/Fluc signal [3, 20]: 96.006 and 100.644 and 74.9876 and 76.7216
DMSO-normalized ratio of Nluc/Fluc signal [3, 21]: 72.8244 and 95.6646 and 99.6579 and 99.4332
DMSO-normalized ratio of Nluc/Fluc signal [3, 22]: 97.6563 and 103.416 and 111.647 and 107.58
DMSO-normalized ratio of Nluc/Fluc signal [3, 23]: 72.1292 and 95.3278 and 119.638 and 97.0458
DMSO-normalized ratio of Nluc/Fluc signal [3, 24]: 78.9909 and 117.088 and 62.8565 and 76.9455
DMSO-normalized ratio of Nluc/Fluc signal [3, 25]: 119.218 and 128.013 and 101.879 and 100.194
DMSO-normalized ratio of Nluc/Fluc signal [3, 26]: 65.6358 and 99.3457 and 89.3391 and 80.9056
DMSO-normalized ratio of Nluc/Fluc signal [4, 17]: 107.485 and 132.51 and 146.194 and 142.752
DMSO-normalized ratio of Nluc/Fluc signal [4, 18]: 129.127 and 105.072 and 162.6 and 136.425
DMSO-normalized ratio of Nluc/Fluc signal [4, 19]: 79.0888 and 120.578 and 92.5034 and 88.448
DMSO-normalized ratio of Nluc/Fluc signal [4, 20]: 88.2422 and 88.8583 and 65.8176 and 62.4888
DMSO-normalized ratio of Nluc/Fluc signal [4, 21]: 134.755 and 99.5368 and 72.6182 and 68.5345
DMSO-normalized ratio of Nluc/Fluc signal [4, 22]: 97.7941 and 97.6227 and 54.6259 and 65.8847
DMSO-normalized ratio of Nluc/Fluc signal [4, 23]: 87.9478 and 99.3529 and 98.1344 and 118.766
DMSO-normalized ratio of Nluc/Fluc signal [4, 24]: 97.4127 and 84.7262 and 88.2477 and 92.5526
DMSO-normalized ratio of Nluc/Fluc signal [4, 25]: 102.465 and 92.5515 and 101.177 and 79.93
DMSO-normalized ratio of Nluc/Fluc signal [4, 26]: 77.6015 and 76.7835 and 70.5544 and 62.7116
DMSO-normalized antiproliferation [5, 7]: 72.8225 and 72.1303 and 101.197 and 90.2175
DMSO-normalized antiproliferation [5, 8]: 131.635 and 91.018 and 75.6842 and 106.809
DMSO-normalized antiproliferation [5, 9]: 122.78 and 97.8706 and 155.447 and 120.938
DMSO-normalized antiproliferation [5, 10]: 130.888 and 102.417 and 116.74 and 117.366
DMSO-normalized antiproliferation [5, 11]: 130.608 and 108.743 and 109.209 and 155.426
DMSO-normalized antiproliferation [5, 12]: 126.2 and 112.564 and 135.746 and 163.91
DMSO-normalized antiproliferation [5, 13]: 114.853 and 118.921 and 108.594 and 114.639
DMSO-normalized antiproliferation [5, 14]: 149.935 and 111.753 and 119.231 and 88.5759
DMSO-normalized antiproliferation [5, 15]: 130.478 and 106.921 and 102.092 and 104.28
DMSO-normalized antiproliferation [5, 16]: 146.921 and 153.043 and 111.382 and 113.309
DMSO-normalized antiproliferation ([6]; log10[compound] (M) -5.69897): 96.8823 and 98.3914 and 98.1687 and 89.6654
DMSO-normalized antiproliferation ([6]; log10[compound] (M) -6.19897): 105.48 and 122.576 and 96.899 and 128.406
DMSO-normalized antiproliferation ([6]; log10[compound] (M) -6.69897): 114.368 and 120.61 and 116.857 and 110.62
DMSO-normalized antiproliferation ([6]; log10[compound] (M) -7.19897): 96.9046 and 91.4307 and 93.53 and 114.106
DMSO-normalized antiproliferation ([6]; log10[compound] (M) -7.69897): 103.386 and 104.261 and 89.7267 and 101.721
DMSO-normalized antiproliferation ([6]; log10[compound] (M) -8.19897): 101.449 and 95.4289 and 118.555 and 115.899
DMSO-normalized antiproliferation ([6]; log10[compound] (M) -8.69897): 120.176 and 108.237 and 116.378 and 119.908
DMSO-normalized antiproliferation ([6]; log10[compound] (M) -9.19897): 94.538 and 95.4846 and 105.848 and 104.818
DMSO-normalized antiproliferation ([6]; log10[compound] (M) -9.69897): 83.4954 and 97.4225 and 109.1 and 101.059
DMSO-normalized antiproliferation ([6]; log10[compound] (M) -10.199): 96.7821 and 78.8679 and 98.5696 and 88.8079

Source: paper PMC7501296, “Rapid and direct control of target protein levels with VHL-recruiting dTAG molecules” (Nature Communications, 2020)
